Paper PMC9585939, “Unveiling a family of spiro-β-lactams with anti-HIV and antiplasmodial activity via phosphine-catalyzed [3+2] annulation of 6-alkylidene-penicillanates and allenoates” (Frontiers in Chemistry, 2022)
Where “and” joins values, the source holds several entries; their conditions need not be identical. Equal values may be shown once. Read-outs that look alike come from different tables or passages of the source.

How the values were obtained:
[1] = test system: P. berghei hepatic stage; test: In vitro hepatic infection of Huh7 cells by luciferase-expressing P. berghei; type: cell-based; conditions: Plasmodium berghei, Huh-7; hepatic stage, Huh7 cells, 48 h after infection
Experimental: The inhibitory activity of test compounds on in vitro hepatic infection by P. berghei was determined by comparing the parasite load in compound- and solvent-treated P. berghei-infected Huh7 cells. Infection load was assessed by measurement of luminescence intensity in Huh7 cells infected, with a firefly luciferase-expressing P. berghei line, as previously described ([Ploemen et al., 2009]; [António et al., 2017]). Briefly, Huh7 cells were seeded in 96-well plates (1.0 × 10^4 cells per well) the day before drug treatment and infection. The medium was replaced by another medium containing the appropriate concentration of each compound approximately 1 h prior to infection with sporozoites freshly obtained through disruption of salivary glands of infected female Anopheles stephensi mosquitoes. Sporozoite addition was followed by centrifugation at 1,800 g for 5 min. Parasite infection load was measured 48 h after infection by a bioluminescence assay (Biotium). Cell confluence, a surrogate measure of compound toxicity to Huh7 cells, was assessed by fluorescence measurements using the alamarBlue assay, according to the manufacturer’s instructions. […] Specifically, non-linear regression analysis was employed to fit the normalized results of the dose-response curves, and IC50 values were determined using GraphPad Prism 8.0 (GraphPad Software, La Jolla, California, United States).

[2] = test system: HIV-2 03PTHCC19; test: microbe, parasite or virus in culture; conditions: Human immunodeficiency virus 2, TZM-bl; for IC50 / IC90: 48 h; for IC50: read-out: IC50 HIV-2; for IC90: read-out: IC90 HIV-2; for inhibition at 25 µg/mL: read-out: MPI (%) 25 μg/mL
Text: (§1) The HIV-1 SG3.1 is a reference subtype B strain that uses the CXCR4 coreceptor. It was obtained by transfection of HEK293T cells with pSG3.1 plasmid using jetPRIME transfection reagent (Polyplus-transfection SA, Illkirch, France), according to the instructions of the manufacturer.
(§2) Briefly, TZM-bl cells were infected with 200 TCID50 of HIV-1 or HIV-2 in the presence of serial-fold dilutions of the compounds in the growth medium, supplemented with diethylaminoethyl-dextran (DEAE-dextran). After 48 h of infection, luciferase expression was quantified with Pierce Firefly Luc One-Step Glow Assay Kit (ThermoFisher Scientific, Rockford, United States), according to the instructions of the manufacturer. For each compound dilution, the assay was set up in triplicate wells. Virus controls, cell controls, and inhibitors controls (drugs with a known action against each virus) were employed.

[3] = test system: HIV-1 SG3.1; test: microbe, parasite or virus in culture; conditions: for IC50 / IC90: 48 h; for IC90: read-out: IC90 HIV-1; for inhibition at 25 µg/mL: read-out: MPI (%) 25 μg/mL; for Therapeutic index (CC50/IC50): CC50 in TZM-bl cells
Text: as §1, §2

[4] = Cellular viability assay (alamarBlue) in TZM-bl cells; type: cell-based; conditions: human, 50% cytotoxic concentration
Experimental: Before the antiviral activity screening, all spirocyclopentene-β-lactams were assayed for their in vitro cytotoxic activity (CC50) in TZM-bl cells (Table 4).
TZM-bl cells (AIDS Research and Reference Reagent Program, National Institutes of Health, United States) were cultured in complete growth medium consisting of Dulbecco’s Minimal Essential Medium (DMEM) supplemented with 10% fetal bovine serum (FBS), 100 U/ml of penicillin–streptomycin (Gibco/Invitrogen, United States), 1 mM of sodium pyruvate (Gibco/Invitrogen, United States), 2 mM of L-glutamine (Gibco/Invitrogen, United States), and 1 mM of non-essential amino acids (Gibco/Invitrogen, United States). Cell cultures were maintained at 37°C in 5% CO2.
The in vitro cytotoxicity of test compounds was evaluated in TZM-bl cells using alamarBlue cell viability reagent (Life Technologies, United States), according to the instructions of the manufacturer. The cells were cultured in the presence and absence of serial-fold dilutions of the test compounds. Each dilution of each compound was performed in triplicate wells. Medium controls (only growth medium), cell controls (cells without test compound), and cytotoxicity controls (a compound that kills cells) were employed in each assay.

[5] = test system: HIV-1 SG3.1; conditions: ref Bártolo et al., 2021; Alves et al., 2021c; cited from earlier work
[6] = test system: HIV-2 03PTHCC19; set-up: method as in Bártolo et al., 2021; conditions: ref Bártolo et al., 2021; cited from earlier work
[7] = test system: P. berghei hepatic stage; set-up: method as in Bártolo et al., 2021; Alves et al., 2021c; conditions: hepatic infection; ref Bártolo et al., 2021; Alves et al., 2021c; cited from earlier work
[8] = test system: P. falciparum strain NF54; set-up: method as in Bártolo et al., 2021; Alves et al., 2021c; conditions: erythrocytic infection; ref Bártolo et al., 2021; Alves et al., 2021c; cited from earlier work
[9] = Human immunodeficiency virus 1, TZM-bl, read-out: IC50 HIV-1, TZM-bl cells, 48 h
[10] = Human immunodeficiency virus 1, TZM-bl
[11] = read-out: IC50 HIV-1, TZM-bl cells

With CC1(C)SC2N(C(=O)C23CC=C(C(=O)OCc2ccccc2)C3C(=O)c2ccc(Br)cc2)C1C(=O)OC(c1ccccc1)c1ccccc1 (centres unmarked) [Compound 12c, (1’R,2’R)-Benzhydryl spiro[(2-(4-bromobenzoyl)-3-benzyloxycarbonylcyclopent-3-ene)-1’,6-penicillanate]] the IC50 [1] was 1 to 10 µM, the IC50 [2] was 0.093 µM and the IC90 [2] was 0.159 µM. It also gave an inhibition at 25 µg/mL [2] of 100%, an IC50 [3, 9] of 0.05 µM and an IC90 [3, 10] of 0.116 µM. For the same compound, the inhibition at 25 µg/mL [3, 10] was 87%, the melting point was 156.5 to 158.5 °C and the CC50 [4] was 55 µM.

With COc1ccc(COC(=O)C2=CCC3(C(=O)N4C(C(=O)OC(c5ccccc5)c5ccccc5)C(C)(C)SC43)C2C(=O)c2ccc(Br)cc2)cc1 (centres unmarked) [Compound 14g, (1’R,2’R)-Benzhydryl spiro[(2-(4-bromobenzoyl)-3-(4-methoxybenzyloxycarbonyl)cyclopent-3-ene)-1’,6-penicillanate]] the IC50 [1] was 2.59 ± 0.219 µM, the IC50 [2] was 0.087 µM and the IC90 [2] was 0.137 µM. It also gave an inhibition at 25 µg/mL [2] of 100%, an IC50 [3, 9] of 0.03 µM and an IC90 [3, 10] of 0.099 µM. It also gave an inhibition at 25 µg/mL [3, 10] of 100%, a melting point of 82.6 to 84.6 °C and a CC50 [4] of 101 µM.

CC1(C)SC2N(C(=O)C23CC=C(C(=O)OCC=Cc2ccccc2)C3C(=O)c2ccccc2)C1C(=O)OC(c1ccccc1)c1ccccc1 (centres unmarked) [Compound 9n, (1’R,2’R)-Benzhydryl spiro[(2-benzoyl-3-cinnamyloxycarbonylcyclopent-3-ene)-1’,6-penicillanate]] showed an IC50 [1] of 1.57 ± 0.191 µM, an IC50 [2] of 0.016 µM and an IC90 [2] of 0.064 µM. The inhibition at 25 µg/mL [2] was 100%, the IC50 [3, 9] was 0.017 µM and the IC90 [3, 10] was 0.046 µM. The inhibition at 25 µg/mL [3, 10] was 100%, the melting point was 67.8 to 69.4 °C and the CC50 [4] was 62.3 µM.

In the case of COC(=O)C1C(C(=O)OCc2ccccc2)=CCC12C(=O)N1C(C(=O)OC(c3ccccc3)c3ccccc3)C(C)(C)SC12 (centres unmarked) [BSS-722A], the IC50 [5] is given as 0.65 µM, the IC50 [6] is given as 0.51 µM and the IC50 [7] is given as under 5 µM.

For COC(=O)C1=CCC2(C(=O)N3C(C(=O)OC(c4ccccc4)c4ccccc4)C(C)(C)SC32)C1C(=O)Oc1ccccc1 (centres unmarked) [Compound 4], the IC50 [7] is listed as 2.29 µM and the IC50 [8] is listed as 1.26 µM.

For CCOC(=O)C1=CCC2(C(=O)N3C(C(=O)OC(c4ccccc4)c4ccccc4)C(C)(C)SC32)C1C(=O)c1ccccc1 (centres unmarked) [Compound 5], the IC50 [5] is given as 0.305 µM and < 0.3 µM, the IC50 [7] is given as 1.92 µM and the IC50 [8] is given as 0.844 µM.

With CC1(C)SC2N(C(=O)C23CC=C(C(=O)OCC=Cc2ccccc2)C3C(=O)c2ccc(F)cc2)C1C(=O)OC(c1ccccc1)c1ccccc1 (centres unmarked) [Compound 14c, (1’R,2’R)-Benzhydryl spiro[(2-(4-fluorobenzoyl)-3-cinnamyloxycarbonylcyclopent-3-ene)-1’,6-penicillanate]] the IC50 [1] was 1 to 10 µM, the IC50 [2] was 0.039 µM and the IC90 [2] was 0.103 µM. For the same compound, the inhibition at 25 µg/mL [2] was 100%, the IC50 [3, 9] was under 0.02 µM and the IC90 [3, 10] was 0.018 µM. It also gave an inhibition at 25 µg/mL [3, 10] of 100%, an IC50 [3, 11] of 0.015 µM and a melting point of 76.5 to 78.5 °C. The CC50 [4] was 77.6 µM.

For Cc1ccc(COC(=O)C2=CCC3(C(=O)N4C(C(=O)OC(c5ccccc5)c5ccccc5)C(C)(C)SC43)C2C(=O)c2ccc(Br)cc2)cc1 (centres unmarked) [Compound 14h, (1’R,2’R)-Benzhydryl spiro[(2-(4-bromobenzoyl)-3-(4-methylbenzyloxycarbonyl)cyclopent-3-ene)-1’,6-penicillanate]], the “Therapeutic index (CC50/IC50)” value ([3]; HIV-1) was 649.73, the IC50 [3, 9] was 0.111 µM and the IC90 [3, 10] was 0.297 µM. The inhibition at 25 µg/mL [3, 10] was 93%, the melting point was 74.9 to 76.9 °C and the CC50 [4] was 72.1 µM.

In the case of CC1(C)SC2N(C(=O)C23C(C(=O)OCc2ccccc2)=CCC3C(=O)c2cc(F)cc(F)c2)C1C(=O)OC(c1ccccc1)c1ccccc1 (centres unmarked) [Compound 13f, (1’R,2’R)-Benzhydryl spiro[(2-(3,5-difluorobenzoyl)-5-benzyloxycarbonylcyclopent-4-ene)-1’,6-penicillanate]], the inhibition at 25 µg/mL [3, 10] is reported as 0%, the melting point is reported as 134.8 to 136.8 °C and the CC50 [4] is reported as 58.8 µM.

With CC1(C)SC2N(C(=O)C23CC=C(C(=O)OCc2ccccc2)C3C(=O)c2ccco2)C1C(=O)OC(c1ccccc1)c1ccccc1 (centres unmarked) [Compound 12i, (1’R,2’R)-Benzhydryl spiro[(2-furoyl-3-benzyloxycarbonylcyclopent-3-ene)-1’,6-penicillanate]] the “Therapeutic index (CC50/IC50)” value ([3]; HIV-1) was 559.29, the IC50 [3, 9] was 0.14 µM and the IC90 [3, 10] was 0.223 µM. It also gave an inhibition at 25 µg/mL [3, 10] of 87%, a melting point of 76.5 to 78.5 °C and a CC50 [4] of 78.3 µM.

Compound CC1(C)SC2N(C(=O)C23C(C(=O)OCc2ccccc2)=CCC3C(=O)c2ccco2)C1C(=O)OC(c1ccccc1)c1ccccc1 (centres unmarked) [Compound 13i, (1’R,2’R)-Benzhydryl spiro[(2-furoyl-5-benzyloxycarbonylcyclopent-4-ene)-1’,6-penicillanate]] has an inhibition at 25 µg/mL [3, 10] of 0%, a melting point of 112.8 to 114.8 °C and a CC50 [4] of 61.2 µM.

With CC1(C)SC2N(C(=O)C23CC=C(C(=O)Oc2ccccc2)C3C(=O)c2ccccc2)C1C(=O)OC(c1ccccc1)c1ccccc1 (stereo not drawn) [Compound 9a, (1′R,2′R)-Benzhydryl spiro[(2-benzoyl-3-phenoxycarbonylcyclopent-3-ene)-1′,6-penicillanate]] the “anti-HIV activity (in words)” value ([3]; HIV-1) was “lack of antiviral activity”, the inhibition at 25 µg/mL [3, 10] was 0% and the melting point was > 137 °C (dec.). For the same compound, the CC50 [4] was 215 µM.

COc1ccc(COC(=O)C2=CCC3(C(=O)N4C(C(=O)OC(c5ccccc5)c5ccccc5)C(C)(C)SC43)C2C(=O)c2ccc(Cl)cc2)cc1 (centres unmarked) [Compound 14d, (1’R,2’R)-Benzhydryl spiro[(2-(4-chlorobenzoyl)-3-(4-methoxybenzyloxycarbonyl)cyclopent-3-ene)-1’,6-penicillanate]] showed an IC50 [1] of 2 ± 0.458 µM, an IC50 [2] of 0.065 µM and an IC90 [2] of 0.123 µM. It also gave an inhibition at 25 µg/mL [2] of 100%, an IC50 [3, 9] of under 0.02 µM and an IC90 [3, 10] of 0.019 µM. For the same compound, the inhibition at 25 µg/mL [3, 10] was 100%, the IC50 [3, 11] was 0.015 µM and the melting point was 76.1 to 78.1 °C. It also gave a CC50 [4] of 134 µM.
